Measured values from patent US20150150842A1, “DESETHYLAMIODARONE COMPOSITIONS” (priority 2012, published 2015).
“And” between values parts separate entries of the source, which are not always exact repeats. Equal entries are not always repeated.

Columns and labels:
[1] = tested on: cardiac thyroid receptors; conditions: reported earlier (van Beeren et al, 1995; Latham et al, 1987); cited from earlier work
rats = experiment: Chronic 28-day non-GLP toxicology in rats
[2] = tested on: dog atrial and ventricular tissue; experiment: Atrial and ventricular action potential parameters after chronic oral treatment of non-instrumented dogs; type: in vivo, Beagle dogs; conditions: 500 ms cycle length, 4-week oral DEA 30 or AMIO 45 mg/kg/day
isolated rabbit heart = experiment: Atrial fibrillation induced by rapid atrial pacing with carbachol in isolated (Langendorff) rabbit heart; design: species or system New Zealand white rabbits
Experimental: Hearts from New Zealand white rabbits (1-2 kg) were used in the experiments. Animals were treated with an intravenous injection of 400 IU/kg heparin and anaesthetized by intravenous infusion of 30 mg/kg pentobarbital and sacrificed by cervical dislocation. The protocols were approved by the Department of Animal Health and Food Control of the Ministry of Agriculture and Rural Development, Hungary (XIII/01031/000/2008) and by the Ethical Committee for the Protection of Animals in Research of the University of Szeged, Szeged, Hungary (approval number I-74-125-2007). After median thoracotomy the heart was quickly removed and placed into cold (4° C.) Krebs-Henseleit solution (KHS) containing (in mM): NaCl 118, KCl 4.3, KH2PO4 1.2, MgSO4 1.2, Na pyruvate 5, NaHCO3 25, glucose 11, CaCl2 1.8, pH 7.4 when gassed with a mixture of 95% O2 and 5% CO2. The heart was then mounted on a modified Langendorff apparatus and perfused retrogradely through the aorta with oxygenated KHS warmed to 37° C. The pulmonary vein was also cannulated in order to perfuse the left atrial chamber. In order to record the optical monophasic action potentials the hearts were also loaded with the voltage sensitive fluorescent dye di-4 Anneps for 5 min. To stop the cardiac contractions and avoid motion artefacts during the optical image acquisition the electrical and mechanical activity of the heart was uncoupled by adding 11 mM 2,3-butanedione monoxime to the perfusate.
Epicardial electrograms from the left atrial and left ventricular wall were amplified with a surface electrode amplifier (Experimetria, Hungary) and monitored using a high frequency oscilloscope (Leader Electronics Corporation, Korea). […] The high resolution optical action potential mapping system consisted of a light-emitting diode (LED) lamp as an excitation light source at a wavelength of 527 nm and a high-resolution, high-speed metal-oxide-semiconductor (CMOS) camera (MiCam02, type MCO2C4) equipped with an 580 nm long pass filter for acquiring the fluorescence images from the surface of the heart at a frequency of 833 Hz. Fluorescence images were analyzed using the Brainvison Analyze software (Brainvision Inc Tokyo, Japan).
After allowing the hearts to stabilize for 15 min, acute episodes of atrial fibrillation were induced with rapid electrical stimulation of the atria at a rate of 50 Hz for 10 sec in the presence of 1 μM carbachol in the perfusate. […] All data are expressed as mean±SEM.
All chemicals were purchased from Sigma-Aldrich (St. Louis, Mo., USA), except DEA and di-4 Anneps. Di-4 Anneps was purchased from Molecular Probes Inc. (Eugene, Oreg., USA). […]

dogs = conditions: 4 weeks oral AMIO 45 mg/kg (from 243.2 ms, SE=9.7 after) or DEA 30 mg/kg (from 243.6 ms, SE=7.3 after)
conscious rats = tested on: conscious rats
Experimental: The present experiments were performed on male, Sprague-Dawley CFY rats weighing 260-300 g. During a preliminary open-chest surgery we applied a loose silk loop around the left main coronary artery, and then the chest was closed (Leprán et al., 1983). Seven-eight days after the preliminary surgery—after complete recovery and healing—the loose silk loop was tightened to occlude the coronary artery in conscious, freely moving animals. During the first 15 min of myocardial infarction a bipolar ECG was recorded continuously (PowerLab 8SP, ADInstruments, Great Britain).
We followed the survival rate during the acute phase (first 15 min) and during the subsequent 16 hours after coronary artery occlusion. The incidence and duration of arrhythmias in the acute phase were evaluated according to the Lambeth Conventions (Walker et al., 1988), i.e. ventricular fibrillation, ventricular tachycardia, and other types of arrhythmias, including ventricular extrasystoles, bigeminy, and salvos. The size of myocardial infarction was measured in the animals surviving for 16 hours after coronary artery occlusion using nitrotetrazolium-blue dye staining.
Long-term oral pretreatment was applied for 1 month before the coronary artery occlusion. […] Control animals were given the vehicle in a volume of 5 ml/kg.

[3] = tested on: conscious dogs with structural atrial remodelling; experiment: Chronic rapid atrial pacing induced atrial remodelling and burst-induced atrial fibrillation in conscious dogs
Experimental: The experiments were performed on chronically instrumented Beagle dogs of both sexes, weighing 12-13 kg. The animals were subjected to the following surgery under general anaesthesia: pacemakers were implanted into bilateral subcutaneous pockets in the neck area (Logos, Karios; Biotronik Hungaria Ltd.) and were attached to pacemaker electrodes implanted into the right ventricle and right atrium. Radiofrequency catheter ablation was performed in each animal to achieve third degree atrioventricular (AV) block so that during subsequent rapid atrial pacing (400/min) the ventricles are protected from high heart rates. […] On the seventh day after surgery, following the measurement of right atrial effective refractory period the atrial pacemaker was set to a frequency of 400/min to achieve atrial electrical and structural remodelling. Right atrial rapid pacing is necessary to maintain for 3 months in this model to obtain complete remodeling of the atria signalled by the reduction of right atrial effective refractory period below 80 ms.
The body weight of animals was monitored for strict adherence to the desired dose.
The right atrial effective refractory period (ERP) was measured using the S1 -S2 protocol at cycle lengths of 150 and 300 ms. In addition ERP monitoring, 10-second long burst stimuli were applied at 800/min frequency to induce atrial fibrillation and the incidence of AF, the duration of AF episodes were measured before commencement of oral drug therapy and then after the initiation of therapy every 4 days.

In the case of `CCCCc1oc2ccccc2c1C(=O)c1cc(I)c(OCCNCC)c(I)c1` [DEA, (2-Butylbenzofuran-3-yl)-[4-(2-ethylaminoethoxy)-3,5-diiodophenyl]methanone], the “Affinity for cardiac thyroid receptors compared to AMIO” value [1] is listed as “higher affinity”, the “Detection of the administered drug 14 days after the completion of administration” value (rats; 28-day oral AMIO 200 mg/kg/day or DEA 100 mg/kg/day, plasma (DEA: plasma or cardiac tissue)) is listed as “not detected in plasma or cardiac tissue samples” and the “Elimination of DEA compared to AMIO” value (rats; 28-day oral study) is listed as “significantly faster”. For the same compound, the “Vmax (V/s), Dog atrium” value ([2]; n = 3, CONTROL 249.7 ± 52.7) was 231.5 ± 45.4 V/s, the “APD90 (ms), Dog atrium” value ([2]; n = 4, CONTROL 123.9 ± 9.6) was 156.6 ± 12.6 ms and the “Occurrence of atrial fibrillation, After treatment (number of hearts)” value (isolated rabbit heart; 1 μM carbachol, 50 Hz pacing 10 sec, DEA 5 μM, before treatment 5 of 5 hearts) was 0 of 5 and 0. For the same compound, the “Occurrence of atrial fibrillation after treatment, %” value (isolated rabbit heart; 1 μM carbachol, DEA 5 μM, Control 77) was 0%, the “Average duration of atrial fibrillation episodes, After treatment” value (isolated rabbit heart; 1 μM carbachol, DEA 5 μM, mean±SEM, before treatment 110.2 ± 37.1) was 0 ± 0 and the “Occurrence of atrial fibrillation” value (isolated rabbit heart; second trial) was “completely prevented the occurrence of atrial fibrillation”. The “ECG QTc interval after treatment” value (dogs) was 266.9 ms, the “Death due to the 1 month treatment” value (conscious rats; 1 month oral pretreatment) was “No death occurred” and the “Survival rate during the acute phase of experimental myocardial infarction” value (conscious rats; 1 month oral pretreatment) was “significantly improved”. The “Behavioral changes, body weight increments” value (conscious rats; 1 month oral pretreatment, AMIO 30 or 100, DEA 15 or 50 mg/kg/day) was “Neither AMIO nor DEA produced any behavioral changes of the animals, or in body weight increments”, the Arrhythmia score (conscious rats; first 15 min after coronary artery occlusion, 1 month oral AMIO 100 or DEA 50 mg/kg/day, control 4.77±0.33) was 3.27±0.56 and the “Incidence of ventricular fibrillation” value (conscious rats; larger doses (AMIO 100, DEA 50 mg/kg/day), after coronary artery occlusion) was “significantly decreased”. The “AF duration (s), Following 4-week treatment, individual animals” value ([3]; oral DEA 25 mg/kg/day, Control (before) 1 122.6, 1 505.8, 6 739.1) was 21.6 s and 44 s and 1.9 s, the “Lg AF duration, Following 4-week treatment, individual animals” value ([3]; oral DEA 25 mg/kg/day, Control (before) 3.05, 3.17, 3.82) was 1.33 and 1.64 and 0.28 and the “ERP, Following 4-week treatment, individual animals” value ([3]; oral DEA 25 mg/kg/day, animals 2010/06, 2010/11, 2010/14, Control (before) <80 in all) was 80 ms (2×) and <80 ms. For the same compound, the “Incidence of AF, Following 4-week treatment, individual animals” value ([3]; oral DEA 25 mg/kg/day, burst-induced AF, Control (before) 60%, 50%, 27%) was 10% (2×) and 27%, the “Lg AF duration, Following 4-week treatment, Mean ± SE” value ([3]; oral DEA 25 mg/kg/day, n=3, Control (before) 3.35 ± 0.24) was 1.08 ± 0.41 and the “Incidence of AF, Following 4-week treatment, Mean ± SE” value ([3]; oral DEA 25 mg/kg/day, n=3, Control (before) 45.7 ± 9.77) was 15.7 ± 5.67%. For the same compound, the “AF duration (s), Following 4-week treatment, Mean ± SE” value ([3]; oral DEA 25 mg/kg/day, n=3, Control (before) 3122 ± 1811.7) was 22.5 ± 12.16 s and the “Incidence and duration of atrial fibrillation” value ([3]; three animals, 4-week oral treatment, DEA 25, AMIO 50 mg/kg/day, accompanied by prolongation of the ERP) was “markedly and significantly decreased”.
